Experimental data published in article PMC4947679, “Quantitative In Vitro and In Vivo Evaluation of Intestinal and Blood-Brain Barrier Transport Kinetics of the Plant N-Alkylamide Pellitorine” (BioMed Research International, 2016).

Assays:
[1] = Brain-to-blood transport after intracerebroventricular injection in mice; type: in vivo, ICR-CD-1 mice
Experimental: To evaluate the efflux of pellitorine out of the brain into the blood, a previously described in vivo method was used. Briefly, the ICR-CD-1 mice were anesthetized with 40% (w/V) urethane solution (3 g/kg). Then, the skin of the skull was removed and a hole was made into the lateral ventricle using a 22 G needle marked with tape at 2 mm at the following coordinates: 1 mm lateral and 0.34 mm posterior to the bregma. Using a syringe pump (KDS100, KR analytical, Cheshire, UK), 1 μL of the 1.8 mg/mL pellitorine dose solution as used for the blood-to-brain influx experiment was injected intracerebroventriculary (ICV) at a speed of 360 μL/h for 10 s. […] Just before decapitation, blood was collected from the abdominal aorta and serum was obtained by centrifuging the blood at 10 000 ×g during 15 min at 21°C. Thereafter, brains were collected. The natural logarithm of the pellitorine concentration in brain (ng/g) was plotted versus time. The efflux rate constant k out (min^−1) is obtained from the negative value of the slope of the linear regression, applying first-order kinetics. From k out, the efflux brain half-life (t 1/2,brain) (min) is calculated as follows: t 1/2,brain = ln(2)/k out.

[2] = In vitro metabolic stability; type: in vitro ADME; details: pH 7.4; one hour, 37°C; mouse serum, brain homogenate and liver homogenate
Experimental: The in vitro metabolic stability of pellitorine was evaluated in mouse brain and liver homogenates and mouse serum according to previously described protocols. Using the Pierce Modified Lowry Protein Assay method (Thermo Scientific), the protein content of each tissue homogenate was determined to prepare a stock solution containing a 0.6 mg/mL protein concentration in Krebs-Henseleit buffer (pH 7.4). […] After 0, 5, 7.5, 15, 60, and 120 min, aliquots of 100 μL were taken and transferred into 0.5 mL tubes (LoBind Eppendorf) containing 100 μL of 1% (V/V) TFA in water. Next, the samples were heated at 95°C for 5 min and subsequently cooled for 30 min in ice. Thereafter, the samples were centrifuged (20 000 ×g for 30 min at 5°C) and 25 μL of the clear supernatant was injected and analysed using a HPLC-UV/MS method of 46 min which was previously described. The HPLC-MS analysis was done on a HPLC system which consisted of a Spectra System SN4000 interface, a Spectra System SCM1000 degasser, a Spectra System P1000XR pump, a Spectra System AS3000 autosampler, and a Finnigan LCQ Classic ion trap mass spectrometer in positive ion mode (all from Thermo, San José, CA, USA) equipped with Waters 2487 Dual Absorbance detector and Xcalibur 2.0 software (Thermo) for data acquisition. Control solutions were also prepared but without pellitorine. […]

[3] = Oral gavage pharmacokinetic experiment with rats; type: in vivo, Wistar rats; details: rat
Experimental: Male and female Wistar rats weighing approximately 220 g were obtained from Bharat Serum and Vaccines Pvt. Ltd., Thane, India (registration number 103/99/CPCSEA) and were housed at CU Shah College of Pharmacy, SNDT Women's University, Santacruz, Mumbai, India (registration number 39/99/CPCSEA) where the experiments were carried out. Rats of 7-8 weeks of age were fasted overnight and used for the experiments.
A pellitorine dose solution was prepared using the Anacyclus pyrethrum extract. To the rats, 1.5 mL of a 0.73 mg pellitorine/g dose solution in 10 : 20 : 30 : 40 (w/w/w/w) EtOH : PG : Vit E-TPGS : PEG 400 was administered using a gavage needle (stainless steel, length of 3 inches, and 2.5 mm internal diameter). As blank, a solution containing EtOH, PG, Vit E-TPGS, and PEG without pellitorine was used. Each dose solution was orally administered to three female and three male rats. 1.5 mL blood was collected from the retro orbital vein at 1, 2, 3, 4, 6, and 8 h after administration of the dose solution and was centrifuged for 20 min at room temperature. Thereafter, the serum samples were immediately frozen at −80°C until bioanalysis. The animals were sacrificed at the end of the experiment by CO2 inhalation. Using GraphPad software (La Jolla, USA), the elimination rate constant k e (h^−1) is calculated using the following equation of a one-compartment model: C(t) = C 0 × e ^−ke×t, in which C(t) (ng/mL) is the concentration of pellitorine at time t (h) and C 0 the concentration of pellitorine at time t = 0 (ng/mL). The elimination half-life t 1/2,e (h) is calculated as ln(2)/k e.

efflux transfer constant k out [1]: 0.05 min⁻¹
half-life ([1]; female, ICR-CD-1, mouse, icv or intrathecal, 1.8 μg/mouse, read-out: efflux brain half-life t 1/2,brain): 0.23 h
recovery at 1 h, 0.025 mg/mL [2]: 91 to 105%
k el ([3]; both sexes, Wistar, serum, po, 5 mg pellitorine/kg, oral gavage, 5 mg pellitorine/kg (Anacyclus pyrethrum extract dose solution), one-compartment model, read-out: serum elimination rate constant k e (converted)): 8.33e-05 s⁻¹
half-life ([3]; both sexes, Wistar, serum, oral gavage, 5 mg pellitorine/kg, one-compartment model, read-out: elimination half-life t 1/2,e (converted)): 2.46 h
maximum serum concentration ([3]; oral administration of 5 mg pellitorine/kg): 26 ng/mL
serum elimination rate constant k e ([3]; oral gavage, 5 mg pellitorine/kg (Anacyclus pyrethrum extract dose solution), one-compartment model): 0.28 h⁻¹
SMILES: CCCCC/C=C/C=C/C(=O)NCC(C)C [pellitorine, deca-2E,4E-dienoic acid isobutylamide]
